Assay results reported in US9963462B2 (priority 2015, dated 2018).
pIC50: −log10 of the molar value.

What was measured:
[1] = target: SNAP-hSPR (sepiapterin reductase, SPR) (Homo sapiens, UniProt P35270); test: biochemical; format: binding; conditions: terbium labelled SNAP-hSPR / SSZ labelled SNAP-EGFP; read-out: hTR-FRET IC50
[2] = tested on: BH4 levels in SK-N-BE (2) cells; test: SKN-N-BE (2) cellular assay, BH4 levels by LC-MS; format: cell-based; conditions: Homo sapiens, SKNBE2, read-out: SK-N-BE(2) IC50, SK-N-BE (2) cells, BH4 levels by LC-MS

SNAP-hSPR (sepiapterin reductase, SPR), sequence (P35270 whole entry): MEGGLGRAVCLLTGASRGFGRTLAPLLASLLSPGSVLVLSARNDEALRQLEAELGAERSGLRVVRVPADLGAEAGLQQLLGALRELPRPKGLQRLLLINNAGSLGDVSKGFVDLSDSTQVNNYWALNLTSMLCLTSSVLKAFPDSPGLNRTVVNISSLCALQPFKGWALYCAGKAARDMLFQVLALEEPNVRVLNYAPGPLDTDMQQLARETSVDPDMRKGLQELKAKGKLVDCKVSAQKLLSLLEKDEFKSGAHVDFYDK

Structure (SMILES) | pIC50 [1] | pIC50 [2]
Cc1cc(-n2cc(C(=O)N3CCC(C(F)(F)F)CC3)c(C)n2)[nH]c(=O)c1 [Q-0440, 4-methyl-6-{3-methyl-4-[4-(trifluoromethyL)piperidine-1-carbonyl]-1H-pyrazol-1-yl}-1,2-dihydropyridin-2-one] | 8.05 | 5.85
Cc1c(C(=O)N2CC(c3ccc(F)c(F)c3)C2)cnn1-c1nc2c(c(=O)[nH]1)CCC2 [Q-0749] | 8.52 | 7.30
Cc1c(C(=O)N2CCCc3ccccc32)cnn1-c1nc2ccsc2c(=O)[nH]1 [Q-0395] | 7.70 | 6.30
Cc1c(C(=O)N2CCC(c3ccccc3)CC2)cnn1-c1nc2[nH]ccc2c(=O)[nH]1 [Q-0488] | 7.70 | 5.92
Cc1c(C(=O)N2CCC(C(C)(C)C#N)CC2)cnn1-c1nc2ccsc2c(=O)[nH]1 [Q-0531] | 8.40 | 7.21
CCOC(=O)c1cn(-c2nn3cccc3c(=O)[nH]2)nn1 [Q-0839] | 8.10 | 5.82
Cc1cc(=O)[nH]c(-n2cc(C(=O)N3CCc4ccccc4C3)cn2)n1 [Q-0314] | 7.70 | 5.24
N#CC1(c2ccccc2)CCN(C(=O)c2cnn(-c3nc4ccsc4c(=O)[nH]3)c2)CC1 [Q-0523] | 7.70 | 7.00
Cc1nn(-c2nc3ccsc3c(=O)[nH]2)c(C)c1C(=O)N1CCC(C(F)(F)F)CC1 [Q-0419] | 8.30 | 6.15
Cc1c(C(=O)N2CCN(c3cnccn3)CC2)cnn1-c1nn2cccc2c(=O)[nH]1 [Q-0831] | 8.70 | 6.40
Cc1c(C(=O)N2CCC(C#N)(c3ccccc3)CC2)cnn1-c1nc2ccsc2c(=O)[nH]1 [Q-0550] | 8.70 | 7.00
Cc1c(C(=O)N2CCC(S(=O)(=O)c3ccc(F)c(F)c3)CC2)cnn1-c1nc2ccsc2c(=O)[nH]1 [Q-0597] | 8.52 | 7.28
Cc1c(C(=O)N2CCC(S(=O)(=O)c3ccccc3)CC2)cnn1-c1nc2c(c(=O)[nH]1)CCC2 [Q-0504] | 8.40 | 7.24
Cc1cc(=O)[nH]c(-n2ncc(C(=O)N3CCc4ccccc4C3)c2C(C)C)n1 [Q-0319] | 8.00 | 5.66
Cc1c(C(=O)N2CCC(C(F)(F)F)CC2)cnn1-c1nc2ccccc2c(=O)[nH]1 [Q-0429] | 7.00 | 4.31
Cc1c(C(=O)N2CCN(C(=O)C34CC(C#N)(C3)C4)CC2)cnn1-c1nc2c(c(=O)[nH]1)CCC2 [Q-0632, 3-(4-(5-methyl-1-(4-oxo-4,5,6,7-tetrahydro-3H-cyclopenta[d]pyrimidin-2-yl)-1H-pyrazole-4-carbonyl)piperazine-1-carbonyl)bicyclo[1.1.1]pentane-1-carbonitrile] | 8.40 | 5.14
Cc1c(C(=O)N2CCN(C(=O)OCc3ccccc3)C(C)C2)cnn1-c1nc2c(c(=O)[nH]1)CCC2 (stereo not drawn) [Q-0507] | 8.00 | 6.70
Cc1c(C(=O)N2CCC3(CC2)OCCO3)cnn1-c1nn2cccc2c(=O)[nH]1 [Q-0795] | 8.70 | 6.30
Cc1nc(-n2ncc(C(=O)N3CCc4ccccc4C3)c2C)[nH]c(=O)c1C [Q-0381] | 8.00 | 5.68
Cc1c(C(=O)N2CCC3(CCCCN3)C2)cnn1-c1nc2ccsc2c(=O)[nH]1 (stereo not drawn) [Q-0595] | 7.15 | 5.36
CN(C(=O)OC(C)(C)C)[C@@H]1CCN(C(=O)c2cnn(-c3nn4cccc4c(=O)[nH]3)c2)C1 [Q-0730] | 9.00 | 6.70

Structure (SMILES) | pIC50 [1] | pIC50 [2]
Cc1nc(-n2ncc(C(=O)N3CCc4ccccc4C3)c2C)[nH]c(=O)c1Cl [Q-0456] | 8.10 | 6.30
Cc1c(C(=O)N2CC[C@H](C)C[C@@H]2C(F)(F)F)cnn1-c1nc2c(c(=O)[nH]1)CCC2 (racemic) [Q-0480] | 8.05 | 6.52
CCCN(CC)C(=O)c1cnn(-c2nc(C)cc(=O)[nH]2)c1C [Q-0347] | 8.00 | 5.12
CC(C)(C#N)C1CCN(C(=O)c2cnn(-c3nc4c(c(=O)[nH]3)CCC4)c2)CC1 [Q-0710] | 8.70 | 6.70
Cc1cc(=O)[nH]c(-n2ccc(C(=O)N3CCc4ccccc43)n2)n1 [Q-0376] | 7.52 | 5.09
Cc1c(C(=O)N2CCC(C(F)(F)F)CC2)cnn1-c1cc(C(F)(F)F)cc(=O)[nH]1 [Q-0466, 6-{5-methyl-4-[4-(trifluoromethyl)piperidine-1-carbonyl]-1H-pyrazol-1-yl}-4-(trifluoromethyl)-1,2-dihydropyridin-2-one] | 9.00 | 7.23
Cc1[nH]c2ccccc2c1C1CCN(C(=O)c2cnn(-c3nc4c(c(=O)[nH]3)CCC4)c2C)CC1 [Q-0611] | 8.40 | 7.54
Cc1c(C(=O)N2CCN(C(=O)OC(C)(C)C)C3(CCC3)C2)cnn1-c1nn2cccc2c(=O)[nH]1 [Q-0820] | 9.00 | 7.40
Cc1c(C(=O)N2CCN(c3ccc(F)cc3)CC2)cnn1-c1nn2cccc2c(=O)[nH]1 [Q-0823] | 9.00 | 7.18
Cc1c(C(=O)N2C3CCC2CC(c2ccccc2)C3)cnn1-c1nc2c(c(=O)[nH]1)CCC2 (stereo not drawn) [Q-0513] | 8.00 | 7.33
Cc1c(C(=O)N2CC(CN)C2)cnn1-c1nc2ccsc2c(=O)[nH]1 [Q-0583] | 7.00 | 5.43
Cc1c(C(=O)N2CCC(C(F)(F)F)CC2)cnn1-c1nc2[nH]ncc2c(=O)[nH]1 [Q-0438] | 7.00 | 4.46
O=C(c1cn(-c2nn3cccc3c(=O)[nH]2)nn1)N1CCC(C(F)(F)F)CC1 [Q-0781] | 9.00 | 6.70
Cc1c(C(=O)N2CCC(C3CC3)CC2)cnn1-c1nc2ccsc2c(=O)[nH]1 [Q-0698] | 9.00 | 7.15
Cc1cc(=O)[nH]c(-n2nc(C)c(CCC(=O)Nc3ccc(Cl)cc3)c2C)n1 [Q-0009] | 6.52 | 4.66
COC(=O)c1cnn(-c2nc(C)cc(=O)[nH]2)c1C [Q-0310] | 7.22 | 4.92
Cc1c(C(=O)N2CCC(CC(F)(F)F)CC2)cnn1-c1nc2c(c(=O)[nH]1)CCC2 [Q-0476] | 8.52 | 7.25
Cc1c(C(=O)N2CCC(c3nc4ccccc4s3)CC2)cnn1-c1nc2c(c(=O)[nH]1)CCC2 [Q-0499] | 7.70 | 7.36
Cc1cc(=O)[nH]c(-n2ncc(C(=O)N3CCS(=O)(=O)CC3)c2C)n1 [Q-0304] | 7.40 | 4.17
Cc1c(C(=O)N(CC2COc3ccccc3O2)C(C)C)cnn1-c1nc2c(c(=O)[nH]1)CCC2 (stereo not drawn) [Q-0500] | 7.52 | 7.01
Cc1c(C(=O)N2CCC(c3nc4ccccc4s3)CC2)cnn1-c1nc2sccc2c(=O)[nH]1 [Q-0574] | 8.22 | 7.33

Structure (SMILES) | pIC50 [1] | pIC50 [2]
Cc1cc(=O)[nH]c(-n2ncc(C(=O)N3CCC(C)(C)C3)c2C)n1 [Q-0341] | 8.30 | 5.74
CC(C)c1c(C(=O)N2CCC(C(F)(F)F)CC2)cnn1-c1nc2c(c(=O)[nH]1)CCC2 [Q-0445] | 8.00 | 6.05
O=C(c1cnn(-c2nc3c(c(=O)[nH]2)CCC3)c1)N1CCC(c2nc3ccc(F)cc3s2)CC1 [Q-0718] | 8.40 | 6.70
Cc1c(C(=O)N2CCC3(CC2)CC3c2nnc(-c3ccccc3)o2)cnn1-c1nn2cccc2c(=O)[nH]1 (stereo not drawn) [Q-0696] | 8.40 | 6.40
Cc1c(C(=O)N2CC(C)(C)OC(C)(C)C2)cnn1-c1nc2ccsc2c(=O)[nH]1 [Q-0405] | 8.00 | 5.82
Cc1c(C(=O)N2CCC(Oc3ccccc3)CC2)cnn1-c1nc2c(c(=O)[nH]1)CCC2 [Q-0462] | 8.30 | 7.03
Cc1c(C(=O)N2CCN(c3ccc(C(F)(F)F)cc3)CC2)cnn1-c1nn2cccc2c(=O)[nH]1 [Q-0833] | 8.22 | 6.70
Cc1c(C(=O)N2CCN(C)c3ccccc32)cnn1-c1nn2cccc2c(=O)[nH]1 [Q-0759] | 9.00 | 6.70
Cc1c(C(=O)N2CCC(c3nc4cc(F)ccc4s3)CC2)cnn1-c1nc2ccsc2c(=O)[nH]1 [Q-0603] | 8.22 | 7.00
CC(C)(C#N)C1CCN(C(=O)c2cnn(-c3nc4c(c(=O)[nH]3)CCC4)c2C2CC2)CC1 [Q-0553] | 8.22 | 6.70
Cc1c(C(=O)N2CCn3cnnc3C2)cnn1-c1nn2cccc2c(=O)[nH]1 [Q-0853] | 7.52 | 5.00
Cc1c(C(=O)N2CCC(C(C)(C)C#N)CC2)cnn1-c1nn2cccc2c(=O)[nH]1 [Q-0600] | 9.00 | 7.24
Cc1c(C(=O)N2CCC(c3c[nH]c4ccccc34)CC2)ccnc1-c1nc2ccsc2c(=O)[nH]1 [Q-0594] | 6.52 | 5.44
Cc1c(C(=O)N2CCC(c3c[nH]c4ccccc34)CC2)cnn1-c1nc2c(c(=O)[nH]1)CCC2 [Q-0498] | 7.70 | 7.52
Cc1c(C(=O)N2CC[C@@H](N(C)C(=O)OC(C)(C)C)C2)cnn1-c1nn2cccc2c(=O)[nH]1 [Q-0736] | 8.70 | 6.70
Cc1c(C(=O)N2CCCC(C(F)(F)F)C2)cnn1-c1nc2c(c(=O)[nH]1)CCC2 (stereo not drawn) [Q-0450] | 8.30 | 6.52
COC1CCN(C(=O)c2cnn(-c3nc4c(c(=O)[nH]3)CCC4)c2C)CC1 [Q-0461] | 8.52 | 6.40
Cc1cc(=O)[nH]c(-n2cc(C(=O)N3CCc4ccccc4C3)nn2)n1 [Q-0312, 6-methyl-2-[4-(1,2,3,4-tetrahydroisoquinoline-2-carbonyl)-1H-1,2,3-triazol-1-yl]-3,4-dihydropyrimidin-4-one] | 7.70 | 5.00
Cc1cc(=O)[nH]c(-n2ncc(C(=O)N(C)C3CCc4ccccc43)c2C)n1 (stereo not drawn) [Q-0374] | 8.05 | 5.92
Cc1cc(=O)[nH]c(-n2ncc(C(=O)N(C)C)c2C)n1 [Q-0317] | 7.22 | 4.70
Cc1c(C(=O)N2CCC(C#N)(c3ccccc3)CC2)cnn1-c1nc2sccc2c(=O)[nH]1 [Q-0561] | 8.40 | 7.96
